Literature values in US20130034537A1, “SIMULTANEOUS CO-TREATMENT OF PHYSICAL AND MENTAL SYMPTOMS RELATED TO SEVERE MENTAL DISORDERS BY A SPECIALLY FERMENTED SOY FORMULATION (FSWW08)” (priority 2010, published 2013).

Key:
immunity = conditions: for Magnitude of immunity, ratio: DHEA = 1
[1] = male steroid hormones
schizophrenic men = conditions: oral 2 mg
adrenals = conditions: rats

## C[C@]12CCC(O)CC1=CC(O)[C@@H]1[C@@H]2CC[C@]2(C)C(O)CC[C@@H]12 (stereo partly drawn) [Androstenetriol]
immunity
  Magnitude of immunity, ratio: 1000

## C[C@]12CC[C@H](O)CC1=CC[C@@H]1[C@@H]2CC[C@]2(C)C(=O)CC[C@@H]12 [DHEA, dehydroepiandrosterone]
immunity
  Magnitude of immunity, ratio: 1

## C[C@]12CCC(=O)C[C@@H]1CC[C@@H]1[C@@H]2CC[C@]2(C)[C@@H](O)CC[C@@H]12 [DHT, dihydrotestosterone]
[1]
  activity relative to testosterone: 10 times

## C[C@]12CCC(O)C[C@@H]1CC[C@@H]1[C@@H]2CC[C@]2(C)[C@@H](O)CC[C@@H]12 (stereo partly drawn) [androstanediol]
immunity
  potency in mediating immunity compared to DHEA: 100 times

## CCCCC(=O)O[C@H]1CC[C@H]2[C@@H]3CCc4cc(O)ccc4[C@H]3CC[C@]12C [estradiol valeriate]
Schizophrenic men
  patients who failed to increase estradiol levels: 27%
  testosterone: reduce

## O=c1c(-c2ccc(O)cc2)coc2cc(O)cc(O)c12 [genistein]
adrenals
  DHEA production: supporting
  aldosterone production: inhibiting
  corticosterone production: inhibiting
